{"source": "patent US20100234358A1", "about": "“NERAMEXANE FOR THE TREATMENT OF NYSTAGMUS” (MERZ PHARMA GMBH & CO. KGAA, priority 2007, published 2010)", "key": {"[1]": {"test_system": "acquired pendular nystagmus due to multiple sclerosis", "conditions": "in vivo; cited from earlier work"}, "[2]": {"test_system": "congenital idiopathic and acquired nystagmus", "conditions": "human, in vivo; cited from earlier work"}, "[3]": {"test_system": "congenital, idiopathic nystagmus (subgroup: acquired nystagmus in MS patients)", "test": "Double blind placebo controlled pilot trial of neramexane for treatment of nystagmus", "type": "in vivo, human", "conditions": "as compared to the placebo group, Neramexane mesylate up to 75 mg/d, 7 weeks", "experimental": "The objective of this pilot project is to conduct a clinical trial to assess the efficacy of neramexane as a treatment for nystagmus.\nThe primary objective of this study is to investigate the safety and efficacy of Neramexane mesylate at daily doses of up to 75 mg in the treatment of congenital, idiopathic nystagmus in comparison to placebo. In addition, a subgroup of up to 20 MS patients suffering from acquired nystagmus are included and analyzed in an exploratory manner. In both patient groups, effects of treatment is assessed in comparison with placebo using a two-period cross-over design (two treatment periods of 7 weeks each, separated by a wash-out phase.\nThe study is designed as a randomized, double-blind placebo-controlled, pilot study using a two-period cross-over design. Suitable patients are randomly assigned to one of the two treatment sequences of the cross-over trial (sequence A-B or B-A), i.e. double-blind treatment with Neramexane (A) and matching placebo tablets (B).\nPatients with congenital nystagmus (no pathology other than nystagmus; primary analysis population) or acquired nystagmus subsequent to MS (exploratory analysis only) • male or female outpatients aged between 18 and 80 years (inclusive) at screening; • patients with a metric visual acuity (VA) of 6/9 or lower 6/9); • for females of childbearing potential (last menses less than one year prior to enrollment): negative pregnancy test at baseline; either surgically sterile or use of a medically accepted method of contraception during the entire duration of the study; • congenital idiopathic nystagmus patients: uneventful gross neurological examination; • MS patients: diagnosis ‘multiple sclerosis’ as confirmed on the basis of McDonald criteria; • normal results of electroretinography (ERG) and visually evoked potential (VEP) testing; historical results may be accepted (period of acceptability to be defined) • patients having given written informed consent; • patient expected and willing to comply with the scheduled visits, dosing scheme (in particular placebo), and other requirements of the study; • results of normal physical examination, electrocardiogram (ECG), and safety laboratory at screening, or abnormal findings which are judged not clinically significant by the investigator; • Refraction prior to enrolment and, if required, prescription and receipt of new glasses or contact lenses prior to baseline visual acuity measurement\nNeramexane mesylate 25 mg modified release tablets and matching placebo tablets are administered as film coated tablets. […]\nVisual acuity (VA) is the standard by which the outcomes of drug therapy in nystagmus are measured in the framework of clinical trials. […]"}, "[4]": {"test_system": "N-methyl-D-aspartate (NMDA) receptors", "conditions": "cited from earlier work"}}, "data": [{"smiles": "CC12CC3CC(C)(C1)CC(N)(C3)C2", "note": "[memantine]", "values": [{"measurement": "activity in acquired pendular nystagmus due to multiple sclerosis", "setting": "[1]", "result": "demonstrated activity"}, {"measurement": "effectiveness in the treatment of congenital idiopathic and acquired nystagmus", "setting": "[2]", "result": "may be effective"}]}, {"smiles": "CC1(C)CC(C)(C)CC(C)(N)C1", "note": "[neramexane, 1-amino-1,3,3,5,5-pentamethylcyclohexane]", "values": [{"measurement": "secondary outcome: expanded nystagmus acuity function", "setting": "[3]", "result": "improvement"}, {"measurement": "secondary outcome: nystagmus intensity", "setting": "[3]", "result": "improvement"}, {"measurement": "secondary outcome: reading ability", "setting": "[3]", "result": "improvement"}, {"measurement": "primary outcomes, such as visual acuity", "setting": "[3]; two-period cross-over", "result": "improvement"}, {"measurement": "NMDA-receptor affinity / mode of antagonism", "setting": "[4]", "result": "low to moderate-affinity, non-competitive NMDA-receptor antagonist"}]}]}
